As a reminder, the IC50 is the midpoint of a concentration-inhibition curve.

Where only a bound is given, the exact number is not on record here.

The values below come from patent US9828360B2 (Array BioPharma Inc., priority 2012, dated 2017).

Sequence of TrkA (P04629 440-796 limits assumed): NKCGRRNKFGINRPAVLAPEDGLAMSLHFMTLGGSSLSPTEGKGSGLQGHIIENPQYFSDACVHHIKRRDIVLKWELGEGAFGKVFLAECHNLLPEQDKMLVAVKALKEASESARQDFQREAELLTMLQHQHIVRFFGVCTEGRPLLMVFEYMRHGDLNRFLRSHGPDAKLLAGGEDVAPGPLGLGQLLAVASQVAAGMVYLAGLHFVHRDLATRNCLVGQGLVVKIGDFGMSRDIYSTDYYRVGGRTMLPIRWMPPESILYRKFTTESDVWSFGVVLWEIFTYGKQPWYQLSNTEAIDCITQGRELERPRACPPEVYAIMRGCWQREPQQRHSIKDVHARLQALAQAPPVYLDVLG

This assay has as its target TrkA (Homo sapiens, UniProt P04629). Put plainly: TrkA LanthaScreen Eu Kinase Binding Assay. The settings on record: averaged IC50 values, read-out: TrkA Enzyme IC50. On the set-up: 6HIS tagged cytoplasmic domain from Invitrogen, Cat. No. PV3144; purchased Invitrogen PV3144. As to the method: TrkA binding activity was determined in a TrkA LanthaScreen™ Eu Kinase Binding Assay. 5 nM His-tagged recombinant human TrkA (6HIS tagged cytoplasmic domain from Invitrogen, Cat. No. PV3144) was incubated with 4 nM Alexa-Fluor® Tracer 236 (Invitrogen Cat. No. PV5592), 2 nM biotinylated anti-His (Invitrogen Cat. No. PV6090), and 2 nM europium-labeled Streptavidin (Invitrogen Cat. No. PV5899), in buffer (25 mM MOPS, pH 7.5, 5 mM MgCl2, 0.005% Triton X-100). Three fold serial dilutions of compounds of the invention in DMSO were added to a final percentage of 2% DMSO. After 60-minute incubation at 22° C., the reaction was measured using the EnVision mutlimode plate reader (PerkinElmer) via TR-FRET dual wavelength detection at […]. The percent of control was calculated using a ratiometric emission factor. The IC50 values were determined by fitting a four parameter model to the percent of control data.
Table A provides averaged IC50 values for compounds of the invention when tested in the assay of Example A, where A represents an averaged IC50 value <100 nM; and B represents an averaged IC50 value from 100 to 1,000 nM.
For orientation: Time-resolved FRET reads energy transfer from a long-lived donor to a nearby acceptor.
In the case of `COCCN1C[C@@H](NC(=O)Nc2sc(-c3cnn(C)c3)nc2-c2ccccc2)[C@H](c2ccc(F)c(F)c2)C1` [Example 56, 1-((3S,4R)-4-(3,4-difluorophenyl)-1-(2-methoxyethyl)pyrrolidin-3-yl)-3-(2-(1-methyl-1H-pyrazol-4-yl)-4-phenylthiazol-5-yl)urea di(trifluoroacetate)], the IC50 was under 100 nM.
The figure for `COCCN1C[C@@H](NC(=O)Nc2sc(-c3ccccc3)nc2C)[C@H](c2ccccc2)C1` [Example 46, 1-((3S,4R)-1-(2-methoxyethyl)-4-phenylpyrrolidin-3-yl)-3-(4-methyl-2-phenylthiazol-5-yl)urea] is under 100 nM; for `COCCN1C[C@@H](NC(=O)Nc2cc(-c3ccccc3)cnc2-c2ccccc2)[C@H](c2ccccc2)C1` [Example 7, 1-(2,5-diphenylpyridin-3-yl)-3-((3S,4R)-1-(2-methoxyethyl)-4-phenylpyrrolidin-3-yl)urea] it is under 100 nM.
For the compound `COCCN1C[C@@H](NC(=O)Nc2ccc(-c3cccnc3)nc2C)[C@H](c2ccc(F)c(F)c2)C1` [Example 14, 1-((3S,4R)-4-(3,4-difluorophenyl)-1-(2-methoxyethyl)pyrrolidin-3-yl)-3-(6-methyl-[2,3′-bipyridin]-5-yl)urea], the IC50 was under 100 nM.
The figure for `COCCN1C[C@@H](NC(=O)Nc2ccc(C#N)nc2-c2ccccc2)[C@H](c2ccc(F)c(F)c2)C1` [Example 24, 1-(6-cyano-2-phenylpyridin-3-yl)-3-((3S,4R)-4-(3,4-difluorophenyl)-1-(2-methoxyethyl)pyrrolidin-3-yl)urea] is under 100 nM.
The figure for `COCCN1C[C@@H](NC(=O)Nc2sc(CO)nc2-c2ccccc2)[C@H](c2ccc(F)c(F)c2)C1` [Example 50] is under 100 nM; for `COCCN1C[C@@H](NC(=O)Nc2cc(=O)n(C)nc2-c2ccccc2)[C@H](c2ccc(F)c(F)c2)C1` [Example 34, 1-((3S,4R)-4-(3,4-difluorophenyl)-1-(2-methoxyethyl)pyrrolidin-3-yl)-3-(1-methyl-6-oxo-3-phenyl-1,6-dihydropyridazin-4-yl)urea] it is 100 to 1000 nM; for `COCCN1C[C@@H](NC(=O)Nc2cc(Cl)cnc2-c2ccccc2)[C@H](c2ccccc2)C1` (relative stereo) [Example 2, 1-(5-chloro-2-phenylpyridin-3-yl)-3-(trans-1-(2-methoxyethyl)-4-phenylpyrrolidin-3-yl)urea] it is under 100 nM.
Turning to `COCCN1C[C@@H](NC(=O)Nc2cc(-c3ccccc3)cnc2C)[C@H](c2ccc(F)c(F)c2)C1` [Example 10, 1-((3S,4R)-4-(3,4-difluorophenyl)-1-(2-methoxyethyl)pyrrolidin-3-yl)-3-(2-methyl-5-phenylpyridin-3-yl)urea], the IC50 was 100 to 1000 nM.
As for `COCCN1C[C@@H](NC(=O)Nc2sc(-c3ccccc3)nc2C)[C@H](c2ccc(F)c(F)c2)C1` [Example 45, 11-((3S,4R)-4-(3,4-difluorophenyl)-1-(2-methoxyethyl)pyrrolidin-3-yl)-3-(4-methyl-2-phenylthiazol-5-yl)urea], the IC50 was under 100 nM.
With `COCCN1C[C@@H](NC(=O)Nc2cc(S(C)(=O)=O)cnc2-c2ccccc2)[C@H](c2ccccc2)C1` (relative stereo) [Example 4, 1-(trans-1-(2-methoxyethyl)-4-phenylpyrrolidin-3-yl)-3-(5-(methylsulfonyl)-2-phenylpyridin-3-yl)urea], the IC50 was 100 to 1000 nM.
As for `COCCN1C[C@@H](NC(=O)Nc2sc(C(=O)OC)nc2-c2ccccc2)[C@H](c2ccc(F)c(F)c2)C1` [Example 49, methyl 5-(3-((3S,4R)-4-(3,4-difluorophenyl)-1-(2-methoxyethyl)pyrrolidin-3-yl)ureido)-4-phenylthiazole-2-carboxylate], the IC50 was in the range of 100 to 1000 nM.
Turning to `COCCN1C[C@@H](NC(=O)Nc2cc(S(C)(=O)=O)cnc2-c2ccccc2)[C@H](c2ccc(F)c(F)c2)C1` [Example 13, 1-((3S,4R)-4-(3,4-difluorophenyl)-1-(2-methoxyethyl)pyrrolidin-3-yl)-3-(5-(methylsulfonyl)-2-phenylpyridin-3-yl)urea], the 50% inhibitory concentration (IC50) was under 100 nM.
Turning to `COCCN1C[C@@H](NC(=O)Nc2c(-c3ccccc3)nsc2C(N)=O)[C@H](c2ccc(F)c(F)c2)C1` [Example 36, 4-(3-((3S,4R)-4-(3,4-difluorophenyl)-1-(2-methoxyethyl)pyrrolidin-3-yl)ureido)-3-phenylisothiazole-5-carboxamide], the IC50 was under 100 nM.
In the case of `COCCN1C[C@@H](NC(=O)Nc2c(-c3ccccc3)nc(C)n2C)[C@H](c2ccc(F)c(F)c2)C1` [Example 38, 1-((3S,4R)-4-(3,4-difluorophenyl)-1-(2-methoxyethyl)pyrrolidin-3-yl)-3-(1,2-dimethyl-4-phenyl-1H-imidazol-5-yl)urea], the IC50 is under 100 nM.
In the case of `COCCN1C[C@@H](NC(=O)Nc2ccc(C)nc2-c2ccccc2)[C@H](c2ccc(F)c(F)c2)C1` [Example 29, 1-((3S,4R)-4-(3,4-difluorophenyl)-1-(2-methoxyethyl)pyrrolidin-3-yl)-3-(6-methyl-2-phenylpyridin-3-yl)urea], the IC50 is under 100 nM.
As for `COCCN1C[C@@H](NC(=O)Nc2oc(C(C)C)nc2-c2ccccc2)[C@H](c2ccccc2)C1` [Example 44, 11-(2-isopropyl-4-phenyloxazol-5-yl)-3-((3S,4R)-1-(2-methoxyethyl)-4-phenylpyrrolidin-3-yl)urea], the IC50 lay within 100 to 1000 nM.
With `COCCN1C[C@@H](NC(=O)Nc2ccc(S(=O)(=O)C3CC3)nc2-c2ccccc2)[C@H](c2ccc(F)c(F)c2)C1` [Example 22, 1-(6-(cyclopropylsulfonyl)-2-phenylpyridin-3-yl)-3-((3S,4R)-4-(3,4-difluorophenyl)-1-(2-methoxyethyl)pyrrolidin-3-yl)urea], the IC50 is under 100 nM.
Take `COCCN1C[C@@H](NC(=O)Nc2ccc(-c3ccccc3)nc2C)[C@H](c2ccc(F)c(F)c2)C1` [Example 9, 1-((3S,4R)-4-(3,4-difluorophenyl)-1-(2-methoxyethyl)pyrrolidin-3-yl)-3-(2-methyl-6-phenylpyridin-3-yl)urea]: the IC50 lay within 100 to 1000 nM.
Turning to `COCCN1C[C@@H](NC(=O)Nc2cccnc2-c2ccccc2)[C@H](c2ccc(F)c(F)c2)C1` [Example 19, 1-((3S,4R)-4-(3,4-difluorophenyl)-1-(2-methoxyethyl)pyrrolidin-3-yl)-3-(2-phenylpyridin-3-yl)urea], the IC50 is under 100 nM.
With `COCCN1C[C@@H](NC(=O)Nc2ccc(C)nc2-c2ccccc2)[C@H](c2cc(F)cc(F)c2)C1` [Example 31, 1-((3S,4R)-4-(3,5-difluorophenyl)-1-(2-methoxyethyl)pyrrolidin-3-yl)-3-(6-methyl-2-phenylpyridin-3-yl)urea], the IC50 is under 100 nM.
Take `COCCN1C[C@@H](NC(=O)Nc2cc(OC)cnc2-c2ccccc2)[C@H](c2ccc(F)c(F)c2)C1` [Example 26, 1-((3S,4R)-4-(3,4-difluorophenyl)-1-(2-methoxyethyl)pyrrolidin-3-yl)-3-(5-methoxy-2-phenylpyridin-3-yl)urea]: the IC50 was under 100 nM.
For the compound `COCCN1C[C@@H](NC(=O)Nc2cc(Br)cnc2-c2ccccc2)[C@H](c2ccccc2)C1` [Example 5, 1-(5-bromo-2-phenylpyridin-3-yl)-3-((3S,4R)-1-(2-methoxyethyl)-4-phenylpyrrolidin-3-yl)urea], the IC50 is under 100 nM.
The figure for `COCCN1C[C@@H](NC(=O)Nc2nc(-c3ccccc3)nn2C)[C@H](c2ccc(F)c(F)c2)C1` [Example 54, 1-((3S,4R)-4-(3,4-difluorophenyl)-1-(2-methoxyethyl)pyrrolidin-3-yl)-3-(1-methyl-3-phenyl-1H-1,2,4-triazol-5-yl)urea] is 100 to 1000 nM.
In the case of `COCCN1C[C@@H](NC(=O)Nc2nc(C)nn2-c2ccccc2)[C@H](c2ccc(F)c(F)c2)C1` [Example 53, 1-((3S,4R)-4-(3,4-difluorophenyl)-1-(2-methoxyethyl)pyrrolidin-3-yl)-3-(3-methyl-1-phenyl-1H-1,2,4-triazol-5-yl)urea], the IC50 was under 100 nM.
